A word on the IC50: it is the point on the concentration scale where inhibition reaches its midpoint.

The structures appear in SMILES notation.

Data on 35 compounds can be found in patent US9108957B2 (MITSUBISHI TANABE PHARMA CORPORATION, priority 2009, dated 2015).

This assay deals with human recombinant TPK1 (Homo sapiens, UniProt P49841). Description: Inhibitory activity against P-GS1 phosphorylation by TPK1 (Kinase Glo luminescence). As to conditions: 7.5 μM P-GS1, 10 μM ATP, 25° C. for 16 hours, Kinase Glo Reagent luminescent signal. The class given is biochemical. The procedure:
Inhibitory Activity of the Medicament of the Present Invention Against P-GS1 Phosphorylation by Bovine Cerebral TPK1
A mixture containing 100 mM HEPES-sodium hydroxide (pH 7.2), 1 mM magnesium acetate, 1 mM EGTA, 1 mM dithiothreitol (DTT), 0.02% Tween 20, 7.5 μM P-GS1, 10 μM ATP, human recombinant TPK1 and a compound shown in Table (a final mixture contained 1% DMSO deriving from a solution of a test compound prepared in the presence of 10% DMSO) was used as a reaction system. The phosphorylation was started by adding ATP, and the reaction was conducted at 25° C. for 16 hours. Then equal volume of Kinase Glo Reagent (Promega) was added to the mixture and luminescent signal from the mixture was measured. IC50 for each compound was calculated by setting the data of mixture without enzyme as 0% activity and that without compound as 100% activity.
For orientation: In Kinase-Glo more light means more ATP remaining.

human recombinant TPK1, sequence (P49841 whole entry): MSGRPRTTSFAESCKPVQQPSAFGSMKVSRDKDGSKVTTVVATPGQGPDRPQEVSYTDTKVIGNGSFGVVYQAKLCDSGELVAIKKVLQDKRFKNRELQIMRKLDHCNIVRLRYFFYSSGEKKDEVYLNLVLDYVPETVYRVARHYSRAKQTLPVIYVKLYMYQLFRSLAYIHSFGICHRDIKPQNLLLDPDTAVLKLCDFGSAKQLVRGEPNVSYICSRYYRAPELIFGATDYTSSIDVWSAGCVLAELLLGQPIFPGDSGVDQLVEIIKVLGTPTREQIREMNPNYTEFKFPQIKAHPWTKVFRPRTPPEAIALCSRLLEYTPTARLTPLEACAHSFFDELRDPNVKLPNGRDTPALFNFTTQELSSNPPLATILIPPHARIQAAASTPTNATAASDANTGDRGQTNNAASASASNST

For the compound `Cn1c(N2CCOC(c3ccc(-c4ncon4)cc3)CC2)nc(-c2ccncn2)cc1=O` (single isomer, unassigned; (+)) [Compound A099, (+)-2-[7-[4-(1,2,4-oxadiazol-3-yl)-phenyl]-1,4-oxazepan-4-yl]-3-methyl-6-(pyrimidin-4-yl)pyrimidin-4(3H)-one], the half-maximal inhibitory concentration (IC50) is 14.7 nM.
To `Cn1c(N2CCCO[C@@H](c3cccc(C(N)=O)c3)C2)nc(-c2ccncc2)cc1=O` [Compound A033, (S)-2-[2-(3-aminocarbonylphenyl)-1,4-oxazepan-4-yl]-3-methyl-6-(pyridin-4-yl)pyrimidin-4(3H)-one] belongs 23.4 nM; to `Cn1c(N2CCCO[C@@H](c3cccc(C#N)c3)C2)nc(-c2ccncc2F)cc1=O` [Compound A020], 11.4 nM.
In the case of `Cn1c(N2CCCN(c3ccc(F)cc3)CC2)nc(-c2ccncc2)cc1=O` [Compound A005, 2-[4-(4-fluorophenyl)-1,4-diazepan-1-yl]-3-methyl-6-(pyridin-4-yl)pyrimidin-4(3H)-one], the IC50 was 84.2 nM.
Consider `Cc1nc(-c2ccc([C@H]3CN(c4nc(-c5ccncc5F)cc(=O)n4C)CCCO3)cc2)no1` [Compound A027, (S)-2-[2-[4-(5-methyl-1,2,4-oxadiazol-3-yl)-phenyl]-1,4-oxazepan-4-yl]-6-(3-fluoropyridin-4-yl)-3-methylpyrimidin-4(3H)-one], for which the IC50 stood at 15.4 nM.
To `Cc1noc(-c2ccc(C3CCN(c4nc(-c5ccncn5)cc(=O)n4C)CCO3)cc2)n1` (single isomer, unassigned; (+)) [Compound A103, (+)-2-[7-[4-(3-methyl-1,2,4-oxadiazol-5-yl)-phenyl]-1,4-oxazepan-4-yl]-3-methyl-6-(pyrimidin-4-yl)pyrimidin-4(3H)-one] belongs 16.3 nM.
The figure for `Cn1c(N2CCCO[C@@H](c3cccc(C#N)c3)C2)nc(-c2ccncn2)cc1=O` [Compound A039, (S)-2-[2-(3-cyanophenyl)-1,4-oxazepan-4-yl]-3-methyl-6-(pyrimidin-4-yl)pyrimidin-4(3H)-one] is 31.9 nM; for `Cn1c(N2CCCO[C@H](c3cccc(C#N)c3)C2)nc(-c2ccncc2F)cc1=O` [Compound A047] it is 67.5 nM.
On to `Cn1c(N2CCCN(c3ccc(F)cc3)CC2)nc(-c2ccncn2)cc1=O` [Compound A004, 2-[4-(4-fluorophenyl)-1,4-diazepan-1-yl]-3-methyl-6-(pyrimidin-4-yl)pyrimidin-4(3H)-one], for which the IC50 is 35.1 nM.
Take `COc1cccc(C2CCN(c3nc(-c4ccncc4F)cc(=O)n3C)CCO2)c1` (centres unmarked) [Compound A093, 2-[7-(3-methoxyphenyl)-1,4-oxazepan-4-yl]-6-(3-fluoropyridin-4-yl)-3-methylpyrimidin-4(3H)-one]: the 50% inhibitory concentration (IC50) worked out at 9.65 nM.
To `CC1CCOCCN1c1nc(-c2ccncn2)cc(=O)n1C` (centres unmarked) [Compound A070, 3-methyl-2-(5-methyl-1,4-oxazepan-4-yl)-6-(pyrimidin-4-yl)pyrimidin-4(3H)-one] belongs 17.3 nM; to `Cn1c(N2CCCO[C@H](c3ccc(Br)cc3)C2)nc(-c2ccncc2F)cc1=O` [Compound A044, (R)-2-[2-(4-bromophenyl)-1,4-oxazepan-4-yl]-6-(3-fluoropyridin-4-yl)-3-methylpyrimidin-4(3H)-one], 52.4 nM; to `COc1ccc(C2CCN(c3nc(-c4ccncc4F)cc(=O)n3C)CCO2)cc1` (centres unmarked) [Compound A095, 2-[7-(4-methoxyphenyl)-1,4-oxazepan-4-yl]-6-(3-fluoropyridin-4-yl)-3-methylpyrimidin-4(3H)-one], 10.7 nM.
In the case of `Cn1c(N2CCCO[C@H](c3ccc(C#N)cc3)C2)nc(-c2ccncc2F)cc1=O` [Compound A063, (R)-2-[2-(4-cyanophenyl)-1,4-oxazepan-4-yl]-6-(3-fluoropyridin-4-yl)-3-methylpyrimidin-4(3H)-one], the IC50 stood at 826 nM.
To `Cn1c(N2CCCO[C@H](c3cccc(C(N)=O)c3)C2)nc(-c2ccncc2)cc1=O` [Compound A048, (R)-2-[2-(3-aminocarbonylphenyl)-1,4-oxazepan-4-yl]-3-methyl-6-(pyridin-4-yl)pyrimidin-4(3H)-one] belongs 68.8 nM.
For `Cn1c(N2CCCO[C@H](c3ccc(C(N)=O)cc3)C2)nc(-c2ccncc2F)cc1=O` [Compound A038, (R)-2-[2-(4-aminocarbonylphenyl)-1,4-oxazepan-4-yl]-6-(3-fluoropyridin-4-yl)-3-methylpyrimidin-4(3H)-one], the IC50 turned out to be 30.9 nM.
For `Cn1c(N2CCOC(c3ccc(-c4ncno4)cc3)CC2)nc(-c2ccncn2)cc1=O` (single isomer, unassigned; (-)) [Compound A116, (−)-2-[7-[4-(1,2,4-oxadiazol-5-yl)-phenyl]-1,4-oxazepan-4-yl]-3-methyl-6-(pyrimidin-4-yl)pyrimidin-4(3H)-one], the IC50 was 48 nM.
To `Cn1c(N2CCOC[C@@H](c3ccc(C#N)cc3)C2)nc(-c2ccncn2)cc1=O` [Compound A076, (S)-2-[6-(4-cyanoophenyl)-1,4-oxazepan-4-yl]-3-methyl-6-(pyrimidin-4-yl)pyrimidin-4(3H)-one] belongs 3.1 nM; to `Cc1nc(-c2cccc([C@@H]3CN(c4nc(-c5ccncc5F)cc(=O)n4C)CCCO3)c2)no1` [Compound A055], 164 nM.
To `Cn1c(N2CCCO[C@H](c3ccc(F)cc3)C2)nc(-c2ccncc2)cc1=O` [Compound A057, (R)-2-(2-(4-fluorophenyl)-1,4-oxazepan-4-yl)-3-methyl-6-(pyridin-4-yl)pyrimidin-4(3H)-one] belongs 207 nM.
For `Cn1c(N2CCOCC(c3ccccc3)C2)nc(-c2ccncn2)cc1=O` (single isomer, unassigned; (-)) [Compound A075, (−)-2-(6-phenyl-1,4-oxazepan-4-yl)-3-methyl-6-(pyrimidin-4-yl)pyrimidin-4(3H)-one], the concentration for half-maximal inhibition (IC50) amounted to 1.4 nM.
To `Cn1c(N2CCCOCC2)nc(-c2ccncn2)cc1=O` [Compound A002, 2-(1,4-oxazepan-4-yl)-3-methyl-6-(pyrimidin-4-yl)pyrimidin-4(3H)-one] belongs 232 nM.
The figure for `Cn1c(N2CCCO[C@@H](c3ccc(F)cc3)C2)nc(-c2ccncc2F)cc1=O` [Compound A011, (S)-2-[2-(4-fluorophenyl)-1,4-oxazepan-4-yl]-6-(3-fluoropyridin-4-yl)-3-methylpyrimidin-4(3H)-one] is 6 nM.
The figure for `Cc1noc(-c2ccc([C@@H]3CN(c4nc(-c5ccncc5F)cc(=O)n4C)CCCO3)cc2)n1` [Compound A053, (R)-2-[2-[4-(3-methyl-1,2,4-oxadiazol-5-yl)-phenyl]-1,4-oxazepan-4-yl]-6-(3-fluoropyridin-4-yl)-3-methylpyrimidin-4(3H)-one] is 100 nM.
`CC1CCOCCN1c1nc(-c2ccncc2F)cc(=O)n1C` (centres unmarked) [Compound A067, 6-(3-fluoropyridin-4-yl)-3-methyl-2-(5-methyl-1,4-oxazepan-4-yl)pyrimidin-4(3H)-one]: the IC50 amounted to 9.7 nM.
`Cc1noc(-c2ccc(C3CCN(c4nc(-c5ccncc5F)cc(=O)n4C)CCO3)cc2)n1` (single isomer, unassigned; (-)) [Compound A113, (−)-2-[7-[4-(3-methyl-1,2,4-oxadiazol-5-yl)-phenyl]-1,4-oxazepan-4-yl]-6-(3-fluoropyridin-4-yl)-3-methylpyrimidin-4(3H)-one]: the IC50 was determined as 30 nM.
Regarding `Cn1c(N2CCOC(c3ccc(F)cc3)CC2)nc(-c2ccncc2)cc1=O` (centres unmarked) [Compound A123, 2-[7-(4-fluorophenyl)-1,4-oxazepan-4-yl]-3-methyl-6-(pyridin-4-yl)pyrimidin-4(3H)-one], the concentration for half-maximal inhibition (IC50) amounted to 153 nM.
The figure for `Cc1noc(-c2ccc([C@H]3CN(c4nc(-c5ccncn5)cc(=O)n4C)CCCO3)cc2)n1` [Compound A031, (S)-2-[2-[4-(3-methyl-1,2,4-oxadiazol-5-yl)-phenyl]-1,4-oxazepan-4-yl]-3-methyl-6-(pyrimidin-4-yl)pyrimidin-4(3H)-one] is 20.2 nM; for `CC1CN(c2nc(-c3ccncc3)cc(=O)n2C)CCCO1` (centres unmarked) [Compound A061, 2-(2-methyl-1,4-oxazepan-4-yl)-3-methyl-6-(pyridin-4-yl)pyrimidin-4(3H)-one] it is 446 nM.
With `CC1COCCN(c2nc(-c3ccncc3F)cc(=O)n2C)C1` (centres unmarked) [Compound A084, 2-(6-methyl-1,4-oxazepan-4-yl)-6-(3-fluoropyridin-4-yl)-3-methylpyrimidin-4(3H)-one], the IC50 stood at 15 nM.
The figure for `Cn1c(N2CCCO[C@@H](c3cccc(C(N)=O)c3)C2)nc(-c2ccncc2F)cc1=O` [Compound A012] is 6.7 nM; for `Cn1c(N2CCCO[C@@H](c3ccc(Br)cc3)C2)nc(-c2ccncc2)cc1=O` [Compound A021, (S)-2-[2-(4-bromophenyl)-1,4-oxazepan-4-yl]-3-methyl-6-(pyridin-4-yl)pyrimidin-4(3H)-one] it is 12 nM.
The figure for `CC1CN(c2nc(-c3ccncn3)cc(=O)n2C)CCCO1` (centres unmarked) [Compound A051, 2-(2-methyl-1,4-oxazepan-4-yl)-3-methyl-6-(pyrimidin-4-yl)pyrimidin-4(3H)-one] is 80.3 nM; for `Cn1c(N2CCCO[C@@H](c3cccc(Br)c3)C2)nc(-c2ccncc2F)cc1=O` [Compound A008, (S)-2-[2-(3-bromophenyl)-1,4-oxazepan-4-yl]-6-(3-fluoropyridin-4-yl)-3-methylpyrimidin-4(3H)-one] it is 4.5 nM.
To `Cn1c(N2CCCOC(c3ccccc3)C2)nc(-c2ccncc2F)cc1=O` (centres unmarked) [Compound A006, 2-(2-phenyl-1,4-oxazepan-4-yl)-6-(3-fluoropyridin-4-yl)-3-methylpyrimidin-4(3H)-one] belongs 2.3 nM.
